Earlier results in US20030092754A1, “External preparation for skin diseases containing nitroimidazole” (priority 1999, published 2003).

Assays:
delayed immune reaction = conditions: intraperitoneal administration
[1] = tested on: swelling of the ears induced by dinitrofluorobenzene; conditions: sensitized mice, intraperitoneal administration
granuloma formation = conditions: mice, oral administration
anti-TBA antibody titer = conditions: rabbits, intraperitoneal administration

SMILES | action on leukocyte migration (leukocyte migration) | anti-Trichomonas activity (Trichomonas) | delayed immune reaction to intravenous injection of ovine erythrocytes (delayed immune reaction) | swelling of the ears induced by dinitrofluorobenzene [1] | antimicrobial activity against Entamoeba histolytica (Entamoeba histolytica) | formation of granuloma by eggs of Schistosoma mansoni (granuloma formation) | increases in anti-TBA antibody titer to TBA vaccine (anti-TBA antibody titer)
CCS(=O)(=O)CCn1c([N+](=O)[O-])cnc1C [tinidazole, 1-(2-ethylsulfonylethyl)-2-methyl-5-nitroimidazole] | clearly exhibits inhibitory action of leukocyte migration | primarily has anti-Trichomonas activity | tends to inhibit delayed immune reaction |  |  |  | 
Cc1ncc([N+](=O)[O-])n1CCO [metronidazole, 2-(2-methyl-5-nitroimidazol-1-yl)ethanol] | inhibitory action on leukocyte migration | potent anti-Trichomonas activity | inhibits a delayed immune reaction | inhibit swelling of the ears | strong antimicrobial activity | inhibited | significantly inhibits
